In patent US11466298B2, “Method for preparing phosphorylated keto polyols, derivatives thereof and uses thereof” (COMMISSARIAT A L'ENERGIE ATOMIQUE ET AUX ENERGIES …, priority 2017, dated 2022):

Assays:
[1] = molecular target: RhaD of various microorganisms including E. coli (Escherichia coli, UniProt P32169); test: Substrate spectrum of RhaD aldolases with respect to ketones; type: biochemical
[2] = molecular target: T1, aldolase (SEQ ID NO: 10), RhaD aldolase (Bacteroides thetaiotaomicron, UniProt Q8A1A0); test: Screening of ketones as acceptors with DHAP as donor, DHAP disappearance assay plus mass spectrometry; type: biochemical; conditions: for DHAP disappearance (%): 10 eq of ketone, 8 μmol DHAP, CoCl2, pH 7.5, RT, 5 h, under Ar; for acceptor of the enzyme when DHAP is the donor: SEQ ID NO: 10
T1 construct: made in house
T1 sequence (Q8A1A0 whole entry, change not shown): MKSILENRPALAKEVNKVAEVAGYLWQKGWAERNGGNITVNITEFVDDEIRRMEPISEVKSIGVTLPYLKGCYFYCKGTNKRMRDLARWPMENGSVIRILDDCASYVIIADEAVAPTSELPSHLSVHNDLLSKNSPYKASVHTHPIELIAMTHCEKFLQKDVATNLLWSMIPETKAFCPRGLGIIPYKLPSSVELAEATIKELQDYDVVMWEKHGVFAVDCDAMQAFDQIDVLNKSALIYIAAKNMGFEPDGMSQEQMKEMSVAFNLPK
Method: Enzyme corresponding to SEQ ID No 10 was purified for deeper characterization and a scale up was performed to analyze the new branched sugars. This aldolase was tested with DHAP as donor and various ketones under argon conditions to avoid oxidation of DHAP and cobalt ion (CoCl2) to optimize the activity. Conversion of the various reactions was determined by assaying DHAP disappearance using triose-phosphate-isomerase coupled with ca-glycerophosphate dehydrogenase enzymes. In addition the products of those reactions were analyzed by mass spectrometry. When the data from the two systems are in agreement, the compound is considered to be substrate of the enzyme.
(§1) Prior to the reaction, all the solutions and solids were degased by bubbling or circulating Ar. Under an Ar atmosphere, 1 mg of aldolase (SEQ ID NO: 10, 6.5 U), 8 μmol of DHAP (123 μL of 65 mM solution), 8 μL CoCl2 (10 mM), 10 eq of electrophile (selected ketone) and water to reach 200 μL final volume were added in a vial. The pH was adjusted to 7.5. The reaction mixture was gently stirred at RT for 5 h. DHAP disappearance was followed spectrophotometrically. The aldolase was removed by filtration over ultra-centrifugal filter unit (Amicon, 10 kDa). The reaction medium was directly analyzed by mass spectrometry (liquid chromatography (Alliance 2695—Waters) coupled to high resolution mass spectrometry (Micromass Q-TOF—Waters)).

SEQ ID: 23 (FucA) = test: LC/MS Orbitrap validation of products from 6 ketones, FucA enzyme; type: biochemical, Kyrpidia tusciae; conditions: 5 to 10 eq of ketone, CoCl2, pH 7.3, 5 h at RT, LC/MS detection
Method: (§2) A mother solution was prepared by mixing DHAP (5.2 mL, 35 mM), CoCl2 (200 μL, 10 mM), 5 to 10 eq of ketone, adjusted to pH 7.3 and degased under Ar. In 10 vials containing each 4 mg of enzyme to screen (beforehand degased under Ar) were added 400 μL of the mother solution. The reactions were gently stirred for 5 h at RT. The aldolase was removed by filtration over ultra-centrifugal filter unit (Amicon, 10 kDa). The reaction medium was analyzed by mass spectrometry.
(§3) The detection of the compounds of interest was performed by LC/ESI-MS method using a Dionex TCC-3000RS chromatographic system (Thermo Fisher Scientific, Courtaboeuf, France) coupled to an ultra-high resolution Orbitrap Elite hybrid mass spectrometer ((Thermo Fisher Scientific, Courtaboeuf, France) equipped with a HESI source.
(§4) A Sequant ZICpHILIC column […], 2.1×100 mm (Merck, Darmstadt, Germany) thermostated at 15° C. was employed for HPLC separation. Mobile phase flow rate was set at 0.2 ml/min, and injection volume was 5 μl. Aqueous solution of 10 mM (NH4)2CO3 (at a pH of 9.9 adjusted by NH4OH) was used as phase A and acetonitrile was used as solvent B. The following gradient conditions were applied for elution: 1 min equilibration step at 80% of phase B; 7 min linear gradient from 80 to 40% of phase B; 3 min isocratic elution at 40% of B, return to 80% of phase B in 3 min and a reconditioning step of 8.5 min.
(§5) Mass and product ion spectra were recorded in the ESI negative ion mode. Ion spray (IS) was set at −4.5 kV and capillary temperature at 275° C. Sheath gas, auxiliary gas and sweep gas flow rates were set at 60, 10 and 0 arbitrary units, respectively. The mass resolution power of the detector was 60000.
(§6) Raw data were manually inspected using the Qual-browser module of Xcalibur version 2.2 (Thermo Fisher Scientific, Courtaboeuf, France) for enzymes from SEQ ID NO:1 to 20 and SEQ ID NO:23 for DHAP+dihydroxyacetone, and for SEQ ID NO:1 to 10 for the other couples of reagents.

[3] = test system: enzymes of SEQ ID NO:1-10 (RhaD); test: LC/MS Orbitrap validation of products from 6 ketones, RhaD enzymes; type: biochemical; conditions: 5 to 10 eq of ketone, CoCl2, pH 7.3, 5 h at RT, LC/MS detection
Method: as §2, §3, §4, §5, §6

[4] = test system: RhaD aldolases of SEQ ID NO:1 to SEQ ID NO:21; test: Aldol reaction of DHAP with dihydroxyacetone (DHA), RhaD aldolases; type: biochemical; conditions: 10 eq of DHA, CoCl2, pH 7.5, RT, 5 h
Method: (§7) Aldolases were tested with DHAP as donor and DHA as acceptor. Cobalt ion (CoCl2) to was added to optimize the activity. Conversion of the reactions was determined by assaying DHAP disappearance using triose-phosphate-isomerase coupled with α-glycerophosphate dehydrogenase enzymes. In addition the products of those reactions were analyzed by mass spectrometry. When the data from the two systems are in agreement, DHA is considered to be substrate of the enzyme.
as §1, with “1” for “Prior to the reaction, all the solutions and solids were degased by bubbling or circulating Ar. Under an Ar atmosphere, 1”, “(RhaD, FucA or TagA),” for “(SEQ ID NO: 10, 6.5 U),”, “DHA” for “electrophile (selected ketone)”

[5] = test system: L-fuculose-1-phosphate aldolase (FucA) of SEQ ID NO:22-23, and 26-34; test: Aldol reaction of DHAP with dihydroxyacetone (DHA), FucA aldolases; type: biochemical; conditions: 10 eq of DHA, CoCl2, pH 7.5, RT, 5 h
Method: as §7
as §1, with “1” for “Prior to the reaction, all the solutions and solids were degased by bubbling or circulating Ar. Under an Ar atmosphere, 1”, “(RhaD, FucA or TagA),” for “(SEQ ID NO: 10, 6.5 U),”, “DHA” for “electrophile (selected ketone)”

[6] = molecular target: T2, L-tagatose 1.6 biP aldolase (TagA) of SEQ ID NO:35 (Escherichia coli, UniProt P0AB74); test: Aldol reaction of DHAP with dihydroxyacetone (DHA), TagA aldolase; type: biochemical; conditions: 10 eq of DHA, CoCl2, pH 7.5, RT, 5 h
T2 construct: made in house
T2 sequence (P0AB74 whole entry): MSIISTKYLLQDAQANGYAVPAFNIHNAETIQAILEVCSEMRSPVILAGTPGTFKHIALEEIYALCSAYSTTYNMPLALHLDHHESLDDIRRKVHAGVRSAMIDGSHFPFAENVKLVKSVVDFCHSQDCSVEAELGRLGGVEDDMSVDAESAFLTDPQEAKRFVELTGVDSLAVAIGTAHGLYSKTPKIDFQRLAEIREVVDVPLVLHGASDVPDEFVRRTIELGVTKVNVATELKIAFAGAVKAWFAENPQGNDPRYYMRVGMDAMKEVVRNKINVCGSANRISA
Method: as §7
as §1, with “1” for “Prior to the reaction, all the solutions and solids were degased by bubbling or circulating Ar. Under an Ar atmosphere, 1”, “(RhaD, FucA or TagA),” for “(SEQ ID NO: 10, 6.5 U),”, “DHA” for “electrophile (selected ketone)”

[7] = test system: DHA aldolases (i.e. FSA of E. coli), deoc aldolase, class I DHAP aldolases and pyruvate aldolases; test: Aldol reaction of DHAP with DHA, aldolases not belonging to class II DHAP aldolases; type: biochemical; conditions: data not shown

Chain of RhaD of various microorganisms including E. coli (P32169 whole entry): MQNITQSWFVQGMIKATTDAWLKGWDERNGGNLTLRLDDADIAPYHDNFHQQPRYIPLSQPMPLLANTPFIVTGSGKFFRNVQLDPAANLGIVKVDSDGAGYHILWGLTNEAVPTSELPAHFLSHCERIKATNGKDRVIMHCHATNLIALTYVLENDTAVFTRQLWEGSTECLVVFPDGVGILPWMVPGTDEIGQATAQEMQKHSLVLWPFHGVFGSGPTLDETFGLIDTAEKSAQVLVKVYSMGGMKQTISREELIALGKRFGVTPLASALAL

Compound	DHAP disappearance (%) [2]	ability of the tested FucA to catalyze the reaction of DHAP with the ketone to form the expected product (SEQ ID: 23 (FucA))	ability of the tested RhaD to catalyze the reaction of DHAP with the ketone to form the expected product [3]	also measured
O=C1CCCC1 [cyclopentanone]	0%	–	–	ability of RhaD to catalyze the reaction of DHAP with the ketone [1]: unable to catalyze; acceptor of the enzyme when DHAP is the donor [2]: not acceptors
CC(=O)C(C)=O [butanedione]	100%	able to catalyze	able to catalyze	–
O=C(CO)Cc1ccccc1	71%	–	–	–
CC(=O)C(=O)O	75%	–	–	–
O=C(O)C(=O)CO [hydroxypyruvate]	92%	able to catalyze	able to catalyze	–
O=C(CCl)CCl	72%	–	–	–
O=C1CCCCC1O (stereo not drawn) [2-hydroxycyclohexanone]	84%	able to catalyze	able to catalyze	–
O=C(CO)CO [dihydroxyacetone]	100%	able to catalyze	able to catalyze	ability of the enzymes to catalyse the reaction between DHAP and DHA [4]: able to catalyse; ability of the enzymes to catalyse the reaction between DHAP and DHA [5]: same results; ability of the enzyme to catalyse the reaction between DHAP and DHA [6]: same results; ability of the enzymes to catalyse the reaction between DHA and DHAP [7]: failed to catalyze
CCC(=O)CO [1-hydroxybutanone]	84%	–	–	–
O=C(CO)[C@@H](O)CO [L-erythrulose]	100%	able to catalyze	able to catalyze	–
CC(=O)CC(C)=O	83%	–	–	–
acetone	0%	–	–	ability of RhaD to catalyze the reaction of DHAP with the ketone [1]: unable to catalyze; acceptor of the enzyme when DHAP is the donor [2]: not acceptors
hydroxyacetone	95%	able to catalyze	able to catalyze	–
CC(=O)CCO [4-hydroxybutan-2-one]	–	–	–	acceptor of the enzyme when DHAP is the donor [2]: not acceptors
CC(=O)C(C)O (stereo not drawn)	96%	–	–	–
CC(=O)CCO [drawing 99]	0%	–	–	–
butanone	0%	–	–	ability of RhaD to catalyze the reaction of DHAP with the ketone [1]: unable to catalyze; acceptor of the enzyme when DHAP is the donor [2]: not acceptors
